Read-outs that look alike come from different tables or passages of the source.
Molecular target: T1, delta opioid receptor (Mus musculus, UniProt P32300)
T1 construct: NG108-15 cell membranes were purchased from Applied Cell Sciences (Rockville, Md.); host or cells: NG108-15 cell membranes
Test: [35S]GTPγS binding assay in NG108-15 cell membranes (delta opioid functional assay), 200 nM screen
Format: biochemical
Details: NG108-15 cell membranes; for EC50 / GTPγS δ-RelEfficacy @200 nM: averages if tested more than once; for GTPγS δ-opioid receptor Rel Efficacy: relative efficacy from dose response; for GTPγS δ-RelEfficacy @200 nM: 200 nM test compound, relative to calculated max of SNC80 dose response curve

[1] = read-out: GTPγS δ-opioid receptor EC50
[2] = GTPγS δ-opioid receptor EC50 (μM)

T1 sequence (P32300 whole entry): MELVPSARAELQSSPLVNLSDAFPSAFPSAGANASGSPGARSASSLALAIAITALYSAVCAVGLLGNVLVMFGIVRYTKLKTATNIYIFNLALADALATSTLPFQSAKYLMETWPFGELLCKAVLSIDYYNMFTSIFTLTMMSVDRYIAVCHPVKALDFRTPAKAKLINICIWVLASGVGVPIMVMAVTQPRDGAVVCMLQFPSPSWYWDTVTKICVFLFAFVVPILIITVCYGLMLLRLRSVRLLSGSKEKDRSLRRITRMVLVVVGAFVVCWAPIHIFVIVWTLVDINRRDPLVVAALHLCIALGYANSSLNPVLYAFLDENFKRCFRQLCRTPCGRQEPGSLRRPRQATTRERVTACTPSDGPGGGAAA

Row | Structure (SMILES) | EC50 [1] [µM] | GTPγS δ-opioid receptor Rel Efficacy | GTPγS δ-RelEfficacy @200 nM | EC50 [2] [µM]
1 | COc1ccc(Oc2nc(-c3cncc(OC)c3)ncc2NC2CCCC(N)C2)cc1 (mixture of isomers) [Cpd 309] | 0.035 | 1.162 | – | –
2 | COc1ccc(Oc2nc(-c3cccnc3)ncc2NC[C@@H]2C[C@@H](O)CN2)cc1 [Cpd 270, 5-(S)-{[4-(4-Methoxy-phenoxy)-2-(pyridin-3-yl)-pyrimidin-5-ylamino]-methyl}-pyrrolidin-3-(R)-ol] | 0.197 | 0.820 | – | –
3 | O=CNc1ccc(Oc2nc(-c3cccnc3)ncc2NC[C@@H]2CCCN2)cc1 [Cpd 216] | 0.494 | 0.969 | 0.406 | –
4 | Cc1cccc(Oc2nc(-c3cncc(Cl)c3)ncc2NC[C@@H]2CCCN2)c1 [Cpd 201] | – | – | 0.148 | –
5 | COc1ccc(Oc2nc(-c3cncc(C)c3)ncc2N[C@@H]2CCCNC2)cc1 [Cpd 258] | – | 0.835 | – | 0.075
6 | COc1ccc(Oc2nc(-c3cncc(OC)c3)ncc2NC[C@H]2C[C@@H](O)CN2)cc1 [Cpd 274, 5-(R)-{[4-(4-Methoxy-phenoxy)-2-(5-methoxy-pyridin-3-yl)-pyrimidin-5-ylamino]-methyl}-pyrrolidin-3-(R)-ol] | – | 0.863 | – | 0.286
7 | Nc1ccc(Oc2nc(-c3cncc(F)c3)ncc2NC[C@@H]2CCCN2)cc1 [Cpd 198, [4-(4-Amino-phenoxy)-2-(5-fluoro-pyridin-3-yl)-pyrimidin-5-yl]-pyrrolidin-2-(S)-ylmethyl-amine] | 0.118 | 1.050 | 0.513 | –
8 | COc1ccc(Oc2nc(-c3cccnc3)ncc2NC[C@@H]2C[C@@H](F)CN2)cc1 [Cpd 196] | – | 1.146 | 0.800 | 0.0693
9 | O=C(c1cccc(Oc2nc(-c3cncc(F)c3)ncc2NC[C@@H]2CCCN2)c1)N1CCOCC1 [Cpd 173] | – | – | 0.249 | –
10 | Cc1ccc(Oc2nc(-c3cncc(F)c3)ncc2NC[C@@H]2CCCN2)cc1 [Cpd 178] | 0.3 | 1.239 | 0.578 | –
11 | COc1ccc(Oc2nc(-c3cncc(C#N)c3)ncc2N2CCC[C@@H]2CN)cc1 [Cpd 332] | – | – | 0.393 | –
12 | COc1ccc(Oc2nc(-c3cccnc3)ncc2NC[C@@H]2C[C@H](O)CN2)cc1 [Cpd 272] | > 1 | – | – | –
13 | CCc1ccc(Oc2nc(-c3cncc(C#N)c3)ncc2NC[C@@H]2CCCN2)cc1 [Cpd 179] | 0.119 | 1.182 | 0.601 | –
14 | COc1ccc(Oc2nc(-c3cncc(C#N)c3)ncc2NC2CCNCC2)cc1 [Cpd 208] | – | – | 0.398 | –
15 | COc1ccc(Oc2nc(-c3cncc(C)c3)ncc2N[C@H]2CCNC2)cc1 [Cpd 257] | – | 0.830 | – | 0.095
16 | COc1cncc(-c2ncc(NC[C@@H]3CCCN3)c(Oc3ccccc3Cl)n2)c1 [Cpd 232] | 0.143 | 1.021 | 0.679 | –
17 | COc1ccc(Oc2nc(-c3cncc(C#N)c3)ncc2N2CCC[C@@H](N)C2)cc1 [Cpd 330] | 0.051 | 0.894 | 0.547 | –
18 | COc1ccc(Oc2nc(-c3cccnc3)ncc2N2CC[C@@H](N)C2)cc1 [Cpd 339] | – | – | 0.641 | –
19 | CC(=O)Nc1ccc(Oc2nc(-c3cncc(F)c3)ncc2NC[C@@H]2CCCN2)cc1 [Cpd 212] | – | 0.994 | – | 0.029
20 | COc1ccc(Oc2nc(-c3cncc(SC)c3)ncc2N[C@H]2CCC[C@@H](N)C2)cc1 [Cpd 316] | – | 0.977 | – | 0.00338
21 | Cc1ccccc1Oc1nc(-c2cncc(Cl)c2)ncc1NC[C@@H]1CCCN1 [Cpd 227] | 0.246 | 1.093 | 0.480 | –
22 | COCCOc1ccc(Oc2nc(-c3cncc(SC)c3)ncc2NC[C@@H]2CCCN2)cc1 [Cpd 241] | – | – | 0.381 | –
23 | CSc1cncc(-c2ncc(NC[C@@H]3CCCN3)c(Oc3ccccc3Cl)n2)c1 [Cpd 233] | – | – | 0.549 | –
24 | Cc1cc(Oc2nc(-c3cncc(F)c3)ncc2NC[C@@H]2CCCN2)ccc1F [Cpd 219] | > 1 | – | 0.475 | –
25 | O=C(Nc1ccc(Oc2nc(-c3cccnc3)ncc2NC[C@@H]2CCCN2)cc1)OCc1ccccc1 [Cpd 177, (4-{2-Pyridin-3-yl-5-[(pyrrolidin-2-(S)-ylmethyl)-amino]-pyrimidin-4-yloxy}-phenyl)-carbamic acid benzyl ester] | 0.255 | 1.389 | 0.511 | –
26 | COc1ccc(Oc2nc(-c3cncc(C#N)c3)ncc2N2CC[C@@H](N)C2)cc1 [Cpd 326] | – | 1.104 | 0.744 | 0.032
27 | COc1cncc(-c2ncc(NC[C@@H]3CCCN3)c(Oc3cccc(O)c3)n2)c1 [Cpd 249] | – | 0.940 | 1.000 | 0.011

Row | Structure (SMILES) | EC50 [1] [µM] | GTPγS δ-opioid receptor Rel Efficacy | GTPγS δ-RelEfficacy @200 nM | EC50 [2] [µM]
28 | Cc1cncc(-c2ncc(NC[C@@H]3CCCN3)c(Oc3ccc(OCF)cc3)n2)c1 [Cpd 260] | 0.3 | 0.937 | – | –
29 | CCN(CC)C(=O)c1cccc(Oc2nc(-c3cncc(F)c3)ncc2NC[C@@H]2CCCN2)c1 [Cpd 170] | – | – | 0.176 | –
30 | COc1ccc(Oc2nc(-c3cncc(C#N)c3)ncc2N2CC[C@H](N)C2)cc1 [Cpd 328] | – | – | 0.377 | –
31 | COCCOc1ccc(Oc2nc(-c3cccnc3)ncc2NC[C@@H]2CCCN2)cc1 [Cpd 244] | – | – | 0.354 | –
32 | COc1ccc(Oc2nc(-c3cncc(C)c3)ncc2N2CCCNCC2)cc1 [Cpd 358] | 0.0242 | 0.978 | – | –
33 | O=C(c1cccc(Oc2nc(-c3cncc(F)c3)ncc2NC[C@@H]2CCCN2)c1)N1CCCC1 [Cpd 171] | – | – | 0.257 | –
34 | COc1ccc(Oc2nc(-c3cnc(Cl)cc3C)ncc2NC[C@@H]2CCCN2)cc1 [Cpd 265] | – | 1.024 | – | 0.053
35 | Cc1ccc(Oc2nc(-c3cncc(F)c3)ncc2NC[C@@H]2CCCN2)cc1F [Cpd 185] | 0.101 | 1.014 | 0.447 | –
36 | CCc1nc(C)c(CNc2cnc(-c3cncc(C#N)c3)nc2Oc2ccc(OC)cc2)[nH]1 [Cpd 287] | – | – | 0.640 | –
37 | N#Cc1cncc(-c2ncc(NC[C@@H]3CCCN3)c(Oc3ccccc3Cl)n2)c1 [Cpd 230] | – | – | 0.847 | –
38 | Cc1ccc(Oc2nc(-c3cccnc3)ncc2NC[C@@H]2CCCN2)cc1F [Cpd 187] | 0.16 | 1.104 | 0.497 | –
39 | CS(=O)(=O)c1ccc(Oc2nc(-c3cncc(F)c3)ncc2NC[C@@H]2CCCN2)cc1 [Cpd 222] | – | – | 0.284 | –
40 | c1cncc(Cc2ccc(Oc3nc(-c4cccnc4)ncc3NC[C@@H]3CCCN3)cc2)c1 [Cpd 209, [2-Pyridin-3-yl-4-(4-pyridin-3-ylmethyl-phenoxy)-pyrimidin-5-yl]-pyrrolidin-2-(S)-ylmethyl-amine] | – | – | 0.002 | –
41 | FCc1ccc(Oc2nc(-c3cccnc3)ncc2NC[C@@H]2CCCN2)cc1 [Cpd 217, [4-(4-Fluoromethyl-phenoxy)-2-pyridin-3-yl-pyrimidin-5-yl]-pyrrolidin-2-(S)-ylmethyl-amine] | 0.612 | 0.882 | 0.480 | –
42 | COc1ccc(Oc2nc(-c3cccnc3)ncc2N2CCN(C)CC2)cc1 [Cpd 353, 4-(4-Methoxy-phenoxy)-5-(4-methyl-piperazin-1-yl)-2-pyridin-3-yl-pyrimidine] | 0.27 | 0.651 | – | –
43 | CCc1ccc(Oc2nc(-c3cncc(C#N)c3)ncc2NC[C@@H]2C[C@@H](F)CN2)cc1 [Cpd 195] | 0.194 | 1.119 | 0.477 | –
44 | COc1ccc(Oc2nc(-c3cccnc3)ncc2NC2CCCC(N)C2)cc1 (single isomer, unassigned) [Cpd 323] | – | 0.988 | – | 0.06
45 | COc1ccc(Oc2nc(-c3cncc(OC)c3)ncc2N2CCNCC2)cc1 [Cpd 342] | – | 1.020 | – | 0.0439
46 | COc1ccc(Oc2nc(-c3cncc(SC)c3)ncc2N[C@@H]2CCC[C@H](N)C2)cc1 [Cpd 317] | – | – | – | > 1
47 | Cc1ccc(Oc2nc(-c3cncc(C#N)c3)ncc2NC[C@@H]2CCCN2)c(F)c1F [Cpd 189] | – | – | 0.375 | –
48 | COc1ccc(Oc2nc(-c3cncc(SC)c3)ncc2N2CCNC(C)(C)C2)cc1 [Cpd 350] | – | 1.079 | – | 0.083
49 | Cc1ccc(Oc2nc(-c3cncc(F)c3)ncc2NC[C@@H]2CCCN2)c(F)c1F [Cpd 191] | – | – | 0.410 | –
50 | COc1ccc(Oc2nc(-c3cncc(C#N)c3)ncc2NC[C@@H]2CCCN2)cc1C [Cpd 204] | – | 0.982 | 0.911 | 0.026
51 | CS(=O)(=O)Nc1ccc(Oc2nc(-c3cncc(F)c3)ncc2NC[C@@H]2CCCN2)cc1 [Cpd 213, N-(4-{2-(5-Fluoro-pyridin-3-yl)-5-[(pyrrolidin-2-(S)-ylmethyl)-amino]-pyrimidin-4-yloxy}-phenyl)-methanesulfonamide] | – | – | 0.079 | –
52 | COc1ccc(Oc2nc(-c3cncc(C#N)c3)ncc2N[C@H]2CCCNC2)cc1 [Cpd 199] | – | 1.140 | 0.615 | –
53 | COc1ccc(Oc2nc(-c3cccnc3)ncc2NC[C@@H]2CCCCN2)cc1 [Cpd 225] | 0.483 | 0.718 | 0.260 | –
54 | Cc1cccc(Oc2nc(-c3cncc(F)c3)ncc2NC[C@@H]2CCCN2)c1 [Cpd 202] | – | – | 0.122 | –

Source: patent US8513271B2, “Pyrimidine compounds as delta opioid receptor modulators” (Janssen Pharmaceutica, NV, priority 2009, dated 2013)
